Measurements: patent publication US20220073554A1, “LINCOSAMIDE ANTIBIOTICS AND USES THEREOF” (President and Fellows of Harvard College, priority 2017, published 2022)
Values after ≈ are worked out from the molar mass of the structure shown.

Columns and labels:
Format in all cases: cell-based
S. aureus BAA 977 iErmA = assay: MIC against S. aureus BAA 977 iErmA; details: Staphylococcus aureus, BAA977
S. aureus MMX 3035 cErmA = assay: MIC against S. aureus MMX 3035 cErmA; details: Staphylococcus aureus, MMX3035CERMA; S. aureus MMX 3035 cErmA; read-out: MIC
[1] = test system: S. aureus BAA-1556 (USA 300); assay: microbe, parasite or virus in culture; details: Staphylococcus aureus
[2] = test system: S. aureus UNT96, NRS710, MP-618 (USA100, Erythro > 8); assay: microbe, parasite or virus in culture; details: Staphylococcus aureus
[3] = test system: S. aureus UNT-146, MP-620, TP 506 (ermA); assay: microbe, parasite or virus in culture; details: Staphylococcus aureus
[4] = test system: S. aureus UNT-120, MP-619, NR522 (USA 600, GISA); assay: microbe, parasite or virus in culture; details: Staphylococcus aureus, USA600
S. pneumoniae ATCC 49619 = assay: MIC against S. pneumoniae ATCC 49619; details: Streptococcus pneumoniae, ATCC49619; S. pneumoniae ATCC 49619; read-out: MIC
[5] = test system: S. pneumoniae MMX 3031 cMefA; assay: MIC against S. pneumoniae MMX 3031 cMefA; details: Streptococcus pneumoniae, MMX3031CMEFA
[6] = test system: S. pneumoniae UNT-038, MP-626, TP 160 (mefA); assay: MIC against S. pneumoniae UNT-038, MP-626, TP 160 (mefA); details: Streptococcus pneumoniae
[7] = test system: S. pneumoniae UNT-039, MP-627, TP1517 (mefA); assay: MIC against S. pneumoniae UNT-039, MP-627, TP1517 (mefA); details: Streptococcus pneumoniae
[8] = test system: S. pneumoniae TP 1579 (ermB + tet(M, O)); assay: MIC against S. pneumoniae TP 1579 (ermB + tet(M, O)); details: Streptococcus pneumoniae
[9] = test system: S. pneumoniae TP 1537 (ermB + mefA); assay: MIC against S. pneumoniae TP 1537 (ermB + mefA); details: Streptococcus pneumoniae
S. pyogenes ATCC 19615 = assay: MIC against S. pyogenes ATCC 19615; details: Streptococcus pyogenes, ATCC19615; S. pyogenes ATCC 19615; read-out: MIC
[10] = test system: S. pyogenes MMX 946 Macrolide-Resistant; assay: MIC against S. pyogenes MMX 946 Macrolide-Resistant; details: Streptococcus pyogenes; S. pyogenes MMX 946 Macrolide-Resistant (MacRes); read-out: MIC
[11] = test system: S. pyogenes UNT-014, MP-625 MacRes; assay: MIC against S. pyogenes UNT-014, MP-625 MacRes; details: Streptococcus pyogenes
E. faecalis ATCC 29212 = assay: MIC against E. faecalis ATCC 29212; details: Enterococcus faecalis, ATCC29212, read-out: MIC
[12] = test system: E. faecalis MMX 847 Macrolide-Resistant; assay: MIC against E. faecalis MMX 847 Macrolide-Resistant; details: Enterococcus faecalis; E. faecalis MMX 847 Macrolide-Resistant (MacRes); read-out: MIC
E. faecalis UNT-047 VRE = assay: microbe, parasite or virus in culture; details: Enterococcus faecalis
C. difficile BAA 1805 = assay: MIC against C. difficile BAA 1805; details: Clostridioides difficile, BAA1805; C. difficile BAA 1805; read-out: MIC
B. fragilis ATCC 25285 = assay: MIC against B. fragilis ATCC 25285; details: Bacteroides fragilis, ATCC25285; B. fragilis ATCC 25285; read-out: MIC
[13] = test system: K. pneumoniae IHMA 658692; KPC-2; assay: microbe, parasite or virus in culture; details: Klebsiella pneumoniae
K. pneumoniae UNT TEM-10 = assay: microbe, parasite or virus in culture; details: Klebsiella pneumoniae, UNTTEM10
E. coli ATCC 15922 = assay: MIC against E. coli ATCC 15922; details: Escherichia coli, ATCC15922; E. coli ATCC 15922; read-out: MIC
[14] = test system: E. coli MMX TolC parent strain; assay: MIC against E. coli MMX TolC parent strain; details: Escherichia coli; E. coli MMX TolC parent strain; read-out: MIC
E. coli MMX 0121 ΔTolC = assay: MIC against E. coli MMX 0121 ΔTolC; details: Escherichia coli
E. coli GUEST131 (NDM-1) = assay: microbe, parasite or virus in culture; details: Escherichia coli
P. aeruginosa ATCC 27853 = assay: MIC against P. aeruginosa ATCC 27853; details: Pseudomonas aeruginosa, ATCC27853; P. aeruginosa ATCC 27853; read-out: MIC
[15] = test system: P. aeruginosa MMX Mex parent strain; assay: MIC against P. aeruginosa MMX Mex parent strain; details: Pseudomonas aeruginosa; P. aeruginosa MMX Mex parent strain; read-out: MIC
H. influenzae ATCC 49247 = assay: MIC against H. influenzae ATCC 49247; details: Haemophilus influenzae, ATCC49247; H. influenzae ATCC 49247; read-out: MIC

## CSC1O[C@H]([C@H](NC(=O)[C@H]2NC[C@@H]3CC(F)(F)CCO[C@H]32)[C@H](C)Cl)C(O)[C@@H](O)[C@H]1O (some centres unmarked) [FSA-24036]
S. aureus BAA 977 iErmA
  MIC: 0.5 µg/mL (≈ 1.05 µM)
S. aureus MMX 3035 cErmA
  MIC: > 64 µg/mL
[1]
  MIC: > 32 µg/mL
[2]
  MIC: > 32 µg/mL
[3]
  MIC: > 32 µg/mL
[4]
  MIC: > 32 µg/mL
S. pneumoniae ATCC 49619
  MIC: ≤ 0.06 µg/mL
[5]
  MIC: ≤ 0.06 µg/mL
[6]
  MIC: ≤ 0.0313 µg/mL
[7]
  MIC: ≤ 0.0313 µg/mL
[8]
  MIC: ≤ 0.0313 µg/mL
[9]
  MIC: > 32 µg/mL
S. pyogenes ATCC 19615
  MIC: ≤ 0.0313 µg/mL
[10]
  MIC: 4 µg/mL (≈ 8.42 µM)
[11]
  MIC: ≤ 0.0313 µg/mL
E. faecalis ATCC 29212
  MIC: 4 µg/mL (≈ 8.42 µM)
[12]
  MIC: > 64 µg/mL
E. faecalis UNT-047 VRE
  MIC: > 32 µg/mL
C. difficile BAA 1805
  MIC: 2 µg/mL (≈ 4.21 µM)
B. fragilis ATCC 25285
  MIC: 4 µg/mL (≈ 8.42 µM)
[13]
  MIC: > 32 µg/mL
K. pneumoniae UNT TEM-10
  MIC: > 32 µg/mL
E. coli ATCC 15922
  MIC: > 64 µg/mL
[14]
  MIC: > 64 µg/mL
E. coli MMX 0121 ΔTolC
  MIC: 8 µg/mL (≈ 16.8 µM)
E. coli GUEST131 (NDM-1)
  MIC: > 32 µg/mL
P. aeruginosa ATCC 27853
  MIC: > 64 µg/mL
[15]
  MIC: > 64 µg/mL
H. influenzae ATCC 49247
  MIC: 4 µg/mL (≈ 8.42 µM)
